Experimental data: US7459477B2, “Substituted N-phenyl-phenoxy nicotinic acid-(thio)amides and their use as herbicides” (Nihon Nohyaku, Co., Ltd., priority 2001, dated 2008)

Columns and labels:
Type in all cases: in vivo
[1] = tested on: powdery mildew fungus (Erysiphe graminis hordei); test: Controlling effect on barley powdery mildew (Test Example 5); conditions: 200 ppm; potted barley at 1 leaf stage sprayed one day after inoculation; one week after the inoculation; 25° C.
Method: Controlling Effect on Barley Powdery Mildew Potted barley plants at the 1 leaf stage were inoculated with spores of powdery mildew fungus (Erysiphe graminis hordei) by sprinkling. After one day, they were sprayed with a liquid chemical prepared by diluting a preparation containing each compound listed in Table 1, Table 3 or Table 4 as an active ingredient to adjust the concentration to 200 ppm. Then, they were allowed to stand in a room thermostated at 25° C. One week after the inoculation, the lesion area of each leaf was measured and then compared with that on the untreated plot, whereby the controlling effect was judged according to the following criterion. Criterion for Judgment: • A: control efficacy 100 to 95% • B: control efficacy 94 to 80% • C: control efficacy 79 to 60% • D: control efficacy 59 to 0%

[2] = tested on: Two-Spotted Spider Mite (Tetranychus Urticae); test: Acaricidal effect on two-spotted spider mite (Test Example 3); conditions: 500 ppm; kidney bean leaf disc with female adults sprayed; two days after the treatment; 25° C.
Method: Acaricidal Effect on Two-Spotted Spider Mite (Tetranychus Urticae)
A leaf disc with a diameter of 2 cm was made of a kidney bean leaf, placed on wet filter paper, inoculated with female adult two-spotted spider mites, and then uniformly sprayed, on a turntable, with 50 ml of a liquid chemical prepared by diluting a preparation containing each compound listed in Tables 1 to 4 as an active ingredient to adjust the concentration to 500 ppm. After the spraying, the leaf disc was allowed to stand in a room thermostated at 25° C. Two days after the treatment with the preparation, the dead insects were counted and the acaricidal effect was judged according to the criterion shown in Test Example 1. The test was carried out with two replications of 10 insects.

[3] = tested on: Smaller Tea Tortrix (Adxophyes sp.); test: Insecticidal effect on smaller tea tortrix (Test Example 2); conditions: 500 ppm; tea leaves immersed about 30 seconds, inoculated with larvae; eight days after the inoculation; 25° C., humidity 70%
Method: Insecticidal Effect on Smaller Tea Tortrix (Adxophyes sp.)
Tea leaves were immersed for about 30 seconds in a liquid chemical prepared by diluting a preparation containing each compound listed in Tables 1 to 4 as an active ingredient to adjust the concentration to 500 ppm. After air-dryness, the tea leaves were placed in a plastic Petri dish with a diameter of 9 cm and inoculated with larvae of smaller tea tortrix, after which the dish was allowed to stand in a room thermostatted at 25° C. and having a humidity of 70%. Eight days after the inoculation, the dead and alive were counted. The mortality was calculated according to the following equation and the insecticidal effect was judged according to the criterion shown in Test Example 1. The test was carried out with triplicate groups of 10 insects.

[4] = tested on: Diamond Back Moth (Plutella xylostella); test: Insecticidal effect on diamond back moth (Test Example 1); conditions: 500 ppm; Chinese cabbage seedling with eggs immersed about 30 seconds; six days after the immersion; 25° C.
Description: Insecticidal Effect on Diamond Back Moth (Plutella xylostella)
Adult diamond back moths were released and allowed to oviposit on a Chinese cabbage seedling. Two days after the release, the seedling having the eggs deposited thereon was immersed for about 30 seconds in a liquid chemical prepared by diluting a preparation containing each compound listed in Tables 1 to 4 as an active ingredient to adjust the concentration to 500 ppm. After air-dryness, it was allowed to stand in a room thermostatted at 25° C. Six days after the immersion, the hatched insects were counted. The mortality was calculated according to the following equation and the insecticidal effect was judged according to the criterion shown below. The test was carried out with triplicate groups of 10 insects.

[5] = tested on: Green Peach Aphid (Myzus Persicae); test: Insecticidal effect on green peach aphid (Test Example 4); conditions: 500 ppm; stems and leaves of Chinese cabbage sprayed; six days after the spraying; greenhouse
Description: Insecticidal Effect on Green Peach Aphid (Myzus Persicae)
A Chinese cabbage plant was planted in each of plastic pots with a diameter of 8 cm and a height of 8 cm, and green peach aphids were propagated on the plant. Then, the stems and leaves were sufficiently sprayed with a liquid chemical prepared by diluting a preparation containing each compound listed in Tables 1 to 4 as an active ingredient to adjust the concentration to 500 ppm. After air-drying, the pots were allowed to stand in a greenhouse. Six days after the spraying, green peach aphids parasitic on each Chinese cabbage plant were counted and the control efficacy was calculated, whereby the […] effect was judged according to the criterion shown below. Control efficacy (%)=100−[(T×Ca)/(Ta×C)]×100 • Ta: number of parasites before spraying in treated group, • T: number of parasites after spraying in treated group,
Ca: number of parasites before spraying in untreated group, • […]: number of parasites after spraying in untreated group. Criterion for Judgment: • A: control efficacy 100% • B: control efficacy 99 to 90% • C: control efficacy 89 to 80% • D: control efficacy 79 to 50%

SMILES | controlling effect (control efficacy rating, lesion area) [1] | acaricidal effect (mortality rating) [2] | insecticidal effect (mortality rating) [3] | insecticidal effect (mortality rating) [4] | control efficacy rating [5]
CC(C)c1cc(C(F)(C(F)(F)F)C(F)(F)F)ccc1NC(=O)c1cn(C)nc1C(F)(F)F [1-5] | B or higher |  |  |  | 
Cn1cc(C(=O)Nc2ccc(C(F)(C(F)(F)F)C(F)(F)F)c3c2CCCC3)c(C(F)(F)F)n1 [1-12] | B or higher |  |  |  | 
CCCC(C)c1cc(C(OC)(C(F)(F)F)C(F)(F)F)ccc1NC(=O)c1c(C)nn(C)c1Cl (centres unmarked) [1-23] | B or higher | B or higher |  |  | 
CC(C)CC(C)c1cc(C(C(F)(F)F)C(F)(F)F)ccc1NC(=O)c1cn(C)nc1C(F)(F)F (centres unmarked) [1-30] | B or higher |  |  |  | 
Cc1c(C(=O)Nc2ccc(C(C(F)(F)F)C(F)(F)F)cc2C(C)CC(C)C)cnn1C (centres unmarked) [1-45] | B or higher |  |  |  | 
CC(C)CC(C)c1cc(C(C(F)(F)F)C(F)(F)F)ccc1NC(=O)c1cnn(C)c1[S+](C)[O-] (centres unmarked) [1-47] | B or higher |  |  |  | 
CC(C)CC(C)c1cc(C(C(F)(F)F)C(F)(F)F)ccc1NC(=O)c1cnn(CCF)c1Cl (centres unmarked) [1-52] | B or higher | B or higher | B or higher | B or higher | B or higher
CCn1ncc(C(=O)Nc2ccc(C(C(F)(F)F)C(F)(F)F)cc2C(C)CC(C)C)c1Br (centres unmarked) [1-54] | B or higher | B or higher |  |  | 
Cc1c(C(=O)Nc2ccc(C(C(F)(F)F)C(F)(F)F)cc2C(C)CC(C)C)c(Cl)nn1C (centres unmarked) [1-60] |  |  | B or higher |  | 
Cc1nn(C)c(F)c1C(=O)Nc1ccc(C(C(F)(F)F)C(F)(F)F)cc1C(C)CC(C)C (centres unmarked) [1-65] |  | B or higher |  | B or higher | B or higher
CCn1nc(C)c(C(=O)Nc2ccc(C(O)(C(F)(F)F)C(F)(F)F)cc2C(C)CC(C)C)c1Br (centres unmarked) [1-83] | B or higher |  |  |  | 
CCCc1nn(C)c(Cl)c1C(=O)Nc1ccc(C(C(F)(F)F)C(F)(F)F)cc1C(C)CC(C)C (centres unmarked) [1-133] | B or higher |  |  | B or higher | 
CC(C)CC(C)c1cc(C(C(F)(F)F)C(F)(F)F)ccc1NC(=O)c1snnc1C(F)(F)F (centres unmarked) [3-12] |  |  | B or higher | B or higher | 
Cc1coc(C)c1C(=O)Nc1ccc(C(C(F)(F)F)C(F)(F)F)cc1C(C)CC(C)C (centres unmarked) [3-13] |  | B or higher |  |  | B or higher
CC(C)CC(C)c1cc(C(C(F)(F)F)C(F)(F)F)ccc1NC(=O)c1sccc1Cl (centres unmarked) [3-28] |  |  | B or higher |  | 
CC(C)CC(C)c1cc(C(C(F)(F)F)C(F)(F)F)ccc1NC(=O)c1sccc1I (centres unmarked) [3-30] | B or higher |  | B or higher |  | 
COC(c1ccc(NC(=O)c2sccc2I)c(C(C)CC(C)C)c1)(C(F)(F)F)C(F)(F)F (centres unmarked) [3-31] | B or higher |  | B or higher |  | 
Cc1cc(C(=O)Nc2ccc(C(C(F)(F)F)C(F)(F)F)cc2C(C)CC(C)C)n(C)n1 (centres unmarked) [4-3] | B or higher | B or higher |  |  | 
CC(C)CC(C)c1cc(C(C(F)(F)F)C(F)(F)F)ccc1NC(=O)c1c(C(F)(F)F)nn(C)c1Cl (centres unmarked) [Compound No. 1-103, N-{2-(1,3-dimethylbutyl)-4-[2,2,2-trifluoro-1-(trifluoromethyl)ethyl]phenyl}-5-chloro-1-methyl-3-trifluoromethylpyrazole-4-carboxamide] |  | B or higher | B or higher | B or higher | 
Cc1nn(C)c(Cl)c1C(=O)Nc1ccc(C(C(F)(F)F)C(F)(F)F)cc1C(C)CCC(C)C (centres unmarked) [Compound No. 1-146, N-{2-(1,4-dimethylpentyl)-4-[2,2,2-trifluoro-1-(trifluoromethyl)ethyl]phenyl}-5-chloro-1,3-dimethylpyrazole-4-carboxamide] |  | B or higher |  | B or higher | B or higher
